Tests used:
[1] = system: PQS-1276-WT (RNA, G4) GGGCCUCGGGGAACGGGGGCCGGG; experiment: fluorescence enhancement; conditions: 150 mM KCl; 10 mM Tris-HCl pH 7.5; 2 µM RNA, 2 µM dye; higher than in LiCl
[2] = system: PQS-2302-WT (RNA, G4) GGGGAGGAGG; experiment: fluorescence enhancement; conditions: 150 mM KCl; 10 mM Tris-HCl pH 7.5; 2 µM RNA, 2 µM dye; higher than in LiCl
[3] = system: PQS-91-WT (RNA, G4) GGGGGGAGGGCCGGG; experiment: fluorescence enhancement; conditions: 150 mM KCl, 10 mM Tris-HCl pH 7.5, 2 µM RNA, 2 µM dye
[4] = system: PQS-1682-WT (RNA, G4) GGAGGUGGAUGG; experiment: fluorescence enhancement; conditions: 150 mM KCl; 10 mM Tris-HCl pH 7.5; 2 µM RNA, 2 µM dye
[5] = system: PQS-1234-WT (RNA, G4) GGGUUAGCCAGGGCCGAGGGGGGCUGGG; experiment: fluorescence enhancement; conditions: 150 mM KCl; 10 mM Tris-HCl pH 7.5; 2 µM RNA, 2 µM dye; higher than in LiCl
[6] = system: PQS-2302-WT-CY5 (RNA, G4) GGGGAGGAGG; experiment: microscale thermophoresis (MST); conditions: 150 mM KCl; 10 mM Tris-HCl pH 7.5 folding buffer; BBM stock 80 µM mixed 1:1
[7] = system: PQS-675-WT-CY5 (RNA, G4) GGGCGGGCGGCCUGCAGGGACAUGGG; experiment: microscale thermophoresis (MST); conditions: 150 mM KCl; 10 mM Tris-HCl pH 7.5 folding buffer; BBM stock 80 µM mixed 1:1
[8] = system: TERRA-WT-CY5 (RNA, G4) UUAGGGUUAGGGUUAGGGUUAGGG; experiment: microscale thermophoresis (MST); conditions: 150 mM KCl; 10 mM Tris-HCl pH 7.5 folding buffer; BBM stock 80 µM mixed 1:1

Row | binding [1] | binding [2] | binding ([3]; only slightly higher than in LiCl) | binding [4] | binding [5] | KD [6] [nM] | KD [7] [nM] | KD [8] [µM] | binding ([3]; higher than in LiCl) | SMILES
1 | yes | yes | weak | weak | yes |  |  |  |  | CCc1c(C)c2cc3nc(cc4nc(cc5c(CC)c(C)c(cc1[nH]2)n5C)C(C)=C4CCC(=O)O)C(CCC(=O)O)=C3C
2 |  |  |  |  |  | 264.76 | 10.78 | 11.55 |  | COc1cc2c3cc1Oc1c(OC)c(OC)cc4c1[C@@H](Cc1ccc(O)c(c1)Oc1ccc(cc1)C[C@@H]3N(C)CC2)N(C)CC4
3 | yes | yes |  | weak | yes |  |  |  | yes | Cc1ccc2c(c1)sc(-c1ccc(N(C)C)cc1)[n+]2C

From publication PMC9904497 (2023)
